The text below walks through data of PMC6009911, “Inhibition of human cytochromes P450 2A6 and 2A13 by flavonoids, acetylenic thiophenes and sesquiterpene lactones from Pluchea indica and Vernonia cinerea” (Journal of Enzyme Inhibition and Medicinal Chemistry, 2017).

Where two headings read alike, the source gives them in different places. Marks after values point to notes of the source that are not given here.

The target in data set [1] is T1, CYP2A6 (Homo sapiens, UniProt P11509).
T1 sequence (P11509 1-494): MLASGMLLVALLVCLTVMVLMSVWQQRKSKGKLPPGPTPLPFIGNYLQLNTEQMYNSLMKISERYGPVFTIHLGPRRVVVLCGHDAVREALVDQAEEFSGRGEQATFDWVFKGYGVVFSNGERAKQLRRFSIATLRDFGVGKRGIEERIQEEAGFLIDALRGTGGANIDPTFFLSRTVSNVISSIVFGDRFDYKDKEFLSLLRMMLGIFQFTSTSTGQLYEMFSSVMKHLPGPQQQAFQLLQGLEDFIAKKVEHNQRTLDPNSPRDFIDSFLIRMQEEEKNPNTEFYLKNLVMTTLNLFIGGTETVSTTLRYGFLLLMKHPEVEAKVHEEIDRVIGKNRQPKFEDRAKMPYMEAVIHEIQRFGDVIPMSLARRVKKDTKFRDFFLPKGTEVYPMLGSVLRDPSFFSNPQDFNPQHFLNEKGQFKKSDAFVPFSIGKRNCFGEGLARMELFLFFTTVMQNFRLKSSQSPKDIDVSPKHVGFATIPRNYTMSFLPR
Also noted: made in house. The following applies: ref Prasopthum et al., 2015, cited from earlier work; for Ki: coumarin 0–40 µM.

Data set [2] concerns the target T2, CYP2A13 (Homo sapiens, UniProt Q16696).
T2 construct: made in house
T2 sequence (Q16696 1-494): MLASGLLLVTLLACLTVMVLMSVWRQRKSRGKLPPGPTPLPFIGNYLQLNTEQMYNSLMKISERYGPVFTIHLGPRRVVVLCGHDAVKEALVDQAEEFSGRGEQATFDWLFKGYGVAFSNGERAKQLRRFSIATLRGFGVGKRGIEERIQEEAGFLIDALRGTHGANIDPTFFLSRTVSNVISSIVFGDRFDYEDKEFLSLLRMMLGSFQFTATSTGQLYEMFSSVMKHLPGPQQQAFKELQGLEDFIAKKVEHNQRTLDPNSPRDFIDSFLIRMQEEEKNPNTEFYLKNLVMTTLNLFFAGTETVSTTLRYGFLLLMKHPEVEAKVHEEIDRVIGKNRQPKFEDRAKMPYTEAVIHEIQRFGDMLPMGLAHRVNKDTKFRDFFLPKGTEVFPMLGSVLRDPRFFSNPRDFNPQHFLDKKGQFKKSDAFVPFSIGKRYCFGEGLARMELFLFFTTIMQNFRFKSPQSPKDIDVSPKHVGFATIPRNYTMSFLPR
Briefly: Inhibition of CYP2A13-mediated coumarin 7-hydroxylation, enzymatic reconstitution assay. The class given is biochemical. The settings on record: for Ki: coumarin 0–40 µM. How it is done:
Inhibitory effect of plant extracts, fractions, subfractions and constituents was determined by inhibition assay on CYP2A6- and CYP2A13-mediated coumarin 7-hydroxylation. The recombinant human CYP2A6, CYP2A13 and rat NADPH-dependent cytochrome P450 oxidoreductase (CYPOR) proteins were expressed, purified, according to the methods previously described. […] Rate of 7-hydroxycoumarin product formation was measured on spectrofluorometer (Shimadzu, Kyoto, Japan) at λex = 355 nm, λem = 460 nm. Inhibition effects were determined by incubation with extracts, fractions or purified compounds with coumarin substrate in the reaction mixture and calculated as per cent relative inhibition compared with vehicle control reaction[20] and IC50 values were calculated using GraphPad Prism 5 (GraphPad Software Inc., La Jolla, CA).
(§1) MBI requires NADPH and time to generate reactive intermediate as inhibitor and ultimately inactivates the enzyme. MBI was evaluated by pre-incubation with each test inhibitor in the reaction at different time periods (0, 10, 20 and 30 min) in the presence of NADPH for time-dependent assay, as described. The apparent inactivation constants, KI and Kinact, were obtained from double reciprocal plots of kobs versus inhibitor concentrations by linear regression analysis on GraphPad Prism 5. Methoxsalen was used as a control mechanism-based inhibitor for time- and NADPH-dependent inhibition assays.

The target in data set [3] is T1, CYP2A6. The following applies: cited from earlier work.
The target in data set [4] is T2, CYP2A13. In words: Mechanism-based (time- and NADPH-dependent) inactivation of CYP2A13. The class given is biochemical. The following applies: for kinact / KI (inactivation): pre-incubation 0-30 min with NADPH; for KI (inactivation): read-out: CYP2A13 KI (inactivation constant). On the procedure:
as §1

Data set [5] addresses T2, CYP2A13. Briefly: Effects of trapping agents and dialysis on inactivation of CYP2A13. Type of data set: biochemical. The settings on record: CYP2A13 inhibition reaction mixture, probe coumarin; for activity at 10 µM: compound 10 µM; for activity at 20 µM: compound 20 µM. On the procedure: as §1
To explore whether inactivation of CYP2As by thiophenes 9–11 and of CYP2A13 by hirsutinolides 5-8 could be reversed, the removal of reversible inhibitory compounds by dialysis and addition of trapping agents (GSH, semicarbazide, catalase or potassium ferricyanide) in the inhibition reaction mixture were performed. […] Similarly, mechanism-based inactivation of both CYP2A6 and CYP2A13 by thiophenes 9–11 could not be reversed (Table 3).

[6] abbreviates: 10-min pre-incubation in the presence of NADPH, read-out: IC50 CYP2A13 Pre-incubation.
[7] abbreviates: coincubation, coumarin 2 µM, read-out: IC50 CYP2A13 Coincubation.
[8] abbreviates: read-out: CYP2A6 KI (inactivation constant), ref Prasopthum et al., 2015.
The mark [9] stands for this setting: read-out: Per cent remaining activity, 70 μM K3Fe(CN)6.
The mark [10] stands for this setting: read-out: Per cent remaining activity, 2 mM GSH.
The mark [11] stands for this setting: read-out: Per cent remaining activity, 5 mM semicarbazide.
The mark [12] stands for this setting: read-out: Per cent remaining activity, 2000 U catalase.
[13] abbreviates: read-out: Per cent remaining activity, Dialysis (+) NADPH.
[14] abbreviates: read-out: Per cent remaining activity, Dialysis (−) NADPH.
[15] abbreviates: read-out: Per cent remaining activity, Pre-incubation.
Setting [16] is: 10-min pre-incubation in the presence of NADPH, read-out: IC50 CYP2A6 Pre-incubation.
Setting [17] is: coincubation, coumarin 2 µM, read-out: IC50 CYP2A6 Coincubation.
Setting [18] is: read-out: inactivation kinetic values (KI) against CYP2A6, literature values.

For the compound `O=c1cc(-c2ccc(O)cc2)oc2cc(O)cc(O)c12` [Apigenin 1, apigenin], the “CYP2A6 Mode of inhibition” value at CYP2A6 [1] was “Mixed type^b”. Also, the “CYP2A13 Mode of inhibition” value on CYP2A13 [2] is given as “Mixed type”. Besides, the concentration for half-maximal inhibition (IC50) at CYP2A13 [2] (setting [6]) was 0.04 ± 0.01 µM; at CYP2A13 [2] (setting [7]), 0.05 ± 0.01 µM. On CYP2A13 [2], this compound returned an inhibitory constant (Ki) of 0.014 ± 0.002 µM.

As for `C=C(C)C(=O)OC1CC(C)C2(O)CCC(C)(/C=C3/OC(=O)C(COC(C)=O)=C31)O2` (stereo not drawn) [Hirsutinolide 5, 8α-(2-methylacryloyloxy)-hirsutinolide-13-O-acetate], the KI (inactivation) is 7.45 ± 0.62 µM on CYP2A6 [3] (setting [8]) and 0.92 ± 0.17 µM on CYP2A13 [4]. The “CYP2A6 Kinact” value at CYP2A6 [3] (ref Prasopthum et al., 2015) is recorded as 0.05 ± 0.01^b. Moreover, the kinact at CYP2A13 [4] was 0.0005 s⁻¹. The activity at 10 µM came out at 24.1 ± 0.62% on CYP2A13 [5] (setting [9]); 28.2 ± 6.54% at CYP2A13 [5] (setting [10]); 24.4 ± 2.54% at CYP2A13 [5] (setting [11]); 20.3 ± 6.24% on CYP2A13 [5] (setting [12]); 18.6 ± 0.94% at CYP2A13 [5] (setting [13]); 86 ± 6.65% at CYP2A13 [5] (setting [14]). The activity at 10 µM at CYP2A13 [5] (setting [15]) worked out at 29.3 ± 2.53%. Further, the IC50 on CYP2A6 [1] (setting [16]) was 8.64 ± 0.37 µM; at CYP2A6 [1] (setting [17]), 22.3 ± 2.5 µM; at CYP2A13 [2] (setting [6]) it was 4.5 ± 0.18 µM; on CYP2A13 [2] (setting [7]), 16.4 ± 3.1 µM. The inhibitory constant (Ki) on CYP2A6 [1] is 15.1 ± 2.1 µM; at CYP2A13 [2], 5.61 ± 0.99 µM. In addition, at CYP2A6 [1], the “CYP2A6 Mode of inhibition” value is on record as “Mixed type^b”. Also, the “CYP2A13 Mode of inhibition” value on CYP2A13 [2] is given as “Mixed type”.

Take `C=C(CO)C(=O)OC1CC(C)C2(O)CCC(C)(/C=C3/OC(=O)C(COC(C)=O)=C31)O2` (stereo not drawn) [Hirsutinolide 7, 8α-(4-hydroxymethacryloyloxy)-hirsutinolide-13-O-acetate]: the KI (inactivation) on CYP2A6 [3] (setting [8]) is 5.32 ± 0.29 µM; at CYP2A13 [4] it was 8.67 ± 0.15 µM. For the same compound, at CYP2A6 [3] (ref Prasopthum et al., 2015), the “CYP2A6 Kinact” value is given as 0.03 ± 0.01^b. The kinact on CYP2A13 [4] is 0.001 s⁻¹. For the same compound, on CYP2A13 [4] (time- and concentration-dependent inactivation), the “KI, CYP2A13 (in Figure 2)” value is 8.67 ± 0.15. Besides, the activity at 10 µM was 21.4 ± 2.75% at CYP2A13 [5] (setting [9]); 18.3 ± 1.54% at CYP2A13 [5] (setting [10]); 26.6 ± 1.25% at CYP2A13 [5] (setting [11]); 20.9 ± 5.18% on CYP2A13 [5] (setting [12]); 21.4 ± 4.45% on CYP2A13 [5] (setting [13]); 93.3 ± 2.1% on CYP2A13 [5] (setting [14]). Moreover, at CYP2A13 [5] (setting [15]), the activity at 10 µM turned out to be 22.2 ± 1.88%. The IC50 on CYP2A6 [1] (setting [16]) was 6.8 ± 0.77 µM; on CYP2A6 [1] (setting [17]) it was 32.7 ± 2.2 µM; on CYP2A13 [2] (setting [6]), 10.5 ± 0.49 µM; at CYP2A13 [2] (setting [7]) it was 23.3 ± 1.35 µM. Further, the Ki on CYP2A6 [1] was 20.4 ± 5.4 µM; on CYP2A13 [2] it was 12.6 ± 1.26 µM. For the same compound, the “CYP2A6 Mode of inhibition” value at CYP2A6 [1] is “Mixed type^b”. Further, the “CYP2A13 Mode of inhibition” value at CYP2A13 [2] is “Mixed type”.

As to `CC(=O)OCC1=C2/C(=C\C3(C)CCC(O)(O3)C(C)CC2OC(=O)/C(C)=C/CO)OC1=O` (stereo not drawn) [Hirsutinolide 8, 8α-(4-hydroxytigloyloxy)-hirsutinolide-13-O-acetate], the KI (inactivation) on CYP2A6 [3] (setting [8]) was 7.64 ± 1.24 µM; at CYP2A13 [4], 8.62 ± 0.37 µM. For the same compound, the “CYP2A6 Kinact” value on CYP2A6 [3] (ref Prasopthum et al., 2015) was 0.09 ± 0.01^b. Besides, the kinact at CYP2A13 [4] was 0.00167 s⁻¹. For the same compound, the activity at 20 µM at CYP2A13 [5] (setting [9]) is 21.8 ± 1.85%; on CYP2A13 [5] (setting [10]) it was 25.8 ± 4.2%; on CYP2A13 [5] (setting [11]) it was 20.7 ± 2.92%; at CYP2A13 [5] (setting [12]), 19.4 ± 1.39%; at CYP2A13 [5] (setting [13]), 18.4 ± 1.1%; on CYP2A13 [5] (setting [14]), 92.4 ± 4.03%. Moreover, the activity at 20 µM at CYP2A13 [5] (setting [15]) was 23.9 ± 3.17%. The IC50 is 13.1 ± 2.4 µM at CYP2A6 [1] (setting [16]), 64.5 ± 5.8 µM on CYP2A6 [1] (setting [17]), 15.9 ± 0.67 µM on CYP2A13 [2] (setting [6]) and 36.1 ± 1.39 µM at CYP2A13 [2] (setting [7]). Further, the Ki is 42.3 ± 8.4 µM at CYP2A6 [1] and 15.8 ± 2.5 µM at CYP2A13 [2]. For the same compound, the “CYP2A6 Mode of inhibition” value at CYP2A6 [1] is on record as “Mixed type^b”. In addition, at CYP2A13 [2], the “CYP2A13 Mode of inhibition” value was “Mixed type”.

Take `O=c1c(O)c(-c2ccc(O)c(O)c2)oc2cc(O)cc(O)c12` [Quercetin 4, quercetin]: the “CYP2A6 Mode of inhibition” value on CYP2A6 [1] is reported as “Competitive^b”. Also, on CYP2A13 [2], the “CYP2A13 Mode of inhibition” value is reported as “Competitive” and the Ki stood at 0.11 ± 0.01 µM. Further, the IC50 at CYP2A13 [2] (setting [6]) amounted to 0.74 ± 0.02 µM. The IC50 at CYP2A13 [2] (setting [7]) was determined as 0.8 ± 0.01 µM.

On to `C/C=C(/C)C(=O)O[C@H]1Cc2cc3ccc(=O)oc3cc2OC1(C)C` [decursinol angelate, reference compound], for which the KI (inactivation) at CYP2A6 [3] (setting [18]) is 2.42 µM.

Turning to `C#CCN(C)[C@H](C)Cc1ccccc1` [selegiline, reference compound], the KI (inactivation) on CYP2A6 [3] (setting [18]) was 15.6 µM.
